Values after ≈ are worked out from the molar mass of the structure shown.

For series [1], the system named is U-87 MG. As to the kind of experiment: Cytotoxicity against human U-87 MG cells assessed as reduction in cell viability measured after 24 hrs by MTT assay. It is filed as functional, cell-based, U-87MG ATCC. Background: Formazan colour is commonly taken as a measure of viable cells.
Series [2] concerns U-118-MG. The series is described as follows: Cytotoxicity against human U-118-MG cells assessed as reduction in cell viability measured after 24 hrs by MTT assay. It is filed as functional, cell-based.
In series [3] the test system is U-251. As to the kind of experiment: Cytotoxicity against human U-251MG cells assessed as reduction in cell viability measured after 24 hrs by MTT assay. To be noted: U-251, 24 h. It is filed as functional, cell-based.
The test system of series [4] is A 172. The series is described as follows: Cytotoxicity against human A-172 cells assessed as reduction in cell viability measured after 24 hrs by MTT assay. Conditions: A 172, 24 h. It counts as functional, cell-based.
A short description of series [5]: Toxicity in human U-87MG cells xenografted in nude mouse assessed as lethal dose at 10 mg/kg, ip administered once daily for 20 days relative to control. It is filed as organism-based. To be noted: in vivo, time 20 day. In general terms: A xenograft is tissue or cells of one species grown in another, often human tumour cells in immunodeficient mice.
The subject of series [6] is U-251. As to the kind of experiment: Antiproliferative activity against human U-251MG cells assessed as reduction in cell growth measured at 10 uM for 48 hrs by MTT assay relative to control. It counts as functional. The arrangement: scale not given: the % may be the effect or the level left.
The nature of series [7]: Antiproliferative activity against human U373 MG cells assessed as reduction in cell growth measured for 72 hrs by MTT assay. It counts as functional, cell-based, U-373MG ATCC.
Series [8] deals with MRC5. The series is described as follows: Cytotoxicity against human MRC5 cells assessed as reduction in cell viability incubated for 72 hrs by neutral red uptake assay. Conditions: MRC5, 72 h. It counts as functional, cell-based.
Series [9] relates to U-87 MG. As to the kind of experiment: Cytotoxicity against human U-87 MG cells assessed as reduction in cell viability incubated for 72 hrs by neutral red uptake assay. It is filed as functional, cell-based, U-87MG ATCC.
The test system of series [10] is U-87 MG. The series is described as follows: Synergistic antiproliferative activity against human U-87 MG cells assessed as combination index at 10 uM incubated for 48 hrs in presence of 1.5 microg/ml Delta-Tocotrienol. It is filed as functional, U-87MG ATCC.
The subject of series [11] is U-87 MG. As to the kind of experiment: Cytotoxicity against human U-87 MG cells assessed as reduction in cell viability in presence of Delta-Tocotrienol incubated for 72 hrs by neutral red uptake assay. It counts as functional, cell-based, U-87MG ATCC.
The test system of series [12] is U-87 MG. The series is described as follows: Cytotoxicity against human U-87 MG cells assessed as reduction in cell viability in presence of Jerantinine B incubated for 72 hrs by neutral red uptake assay. It counts as functional, cell-based, U-87MG ATCC.
In series [13] the test system is T98G. The series is described as follows: Cytotoxicity against human T98G cells assessed as inhibition of cell growth measured for 72 hrs by MTT assay. It counts as functional, cell-based.
Series [14] deals with U-251. The series is described as follows: Cytotoxicity against human U-251MG cells assessed as inhibition of cell growth measured for 72 hrs by MTT assay. It counts as functional, cell-based. Conditions: U-251, 72 h.
Series [15] relates to T98G. As to the kind of experiment: Antiproliferative activity against human T98G cells assessed as inhibition of cell growth measured for 72 hrs by MTT assay. It is filed as functional, cell-based.
Series [16] has as its system U-251. The series is described as follows: Antiproliferative activity against human U-251MG cells assessed as inhibition of cell growth measured for 72 hrs by MTT assay. To be noted: U-251, 72 h. It counts as functional, cell-based.
Series [17] concerns U-251. As to the kind of experiment: Antiproliferative activity against human U-251MG cells assessed as inhibition of cell growth measured for 72 hrs. It counts as functional, cell-based. Conditions: U-251, 72 h.
Series [18] can be described thus: Antiproliferative activity against human D-54MG cells assessed as inhibition of cell growth measured for 72 hrs. It is filed as functional, cell-based. Conditions: D54MG.
The test system of series [19] is A 172. The series is described as follows: Antiproliferative activity against human A-172 cells assessed as inhibition of cell growth measured for 72 hrs. It is filed as functional, cell-based. To be noted: A 172, 72 h.
In series [20] the test system is T98G. The series is described as follows: Antiproliferative activity against human T98G cells assessed as inhibition of cell growth measured for 72 hrs. It is filed as functional, cell-based.
Series [21] deals with U-87 MG. The series is described as follows: Antiproliferative activity against human U-87 MG cells assessed as inhibition of cell growth measured for 72 hrs. It counts as functional, cell-based, U-87MG ATCC.
A short description of series [22]: Cytotoxicity against rat ACNU-resistant C6 cells assessed as reduction in cell growth incubated for 24 hrs by MTT assay. It counts as functional, cell-based.
Series [23] can be described thus: Antitumor activity against rat C6/ACNUcells implanted in Wistar rat assessed as increase in life span at 1 mg/kg relative to control. It is filed as functional, C6/ACNU.
A short description of series [24]: Cytotoxicity against rat ACNU-resistant C6/ACNU cells assessed as reduction in cell growth in presence of reserpine at 20 uM incubated for 24 hrs by MTT assay. It counts as functional, cell-based.
A short description of series [25]: Cytotoxicity against rat ACNU-resistant C6 cell assessed as reduction in cell growth in presence of reserpine at 20 uM incubated for 24 hrs by MTT assay. It is filed as functional, cell-based.
Series [26] can be described thus: Cytotoxicity against rat ACNU-resistant C6/ACNU cells assessed as reduction in cell growth in presence of reserpine at 10 uM incubated for 24 hrs by MTT assay. It is filed as functional, cell-based.
A short description of series [27]: Cytotoxicity against rat ACNU-resistant C6/ACNU cells assessed as reduction in cell growth incubated for 24 hrs by MTT assay. It is filed as functional, cell-based.
The nature of series [28]: Cytotoxicity against rat ACNU-resistant C6 cell assessed as reduction in cell growth in presence of reserpine at 10 uM incubated for 24 hrs by MTT assay. It is filed as functional, cell-based.
Series [29] concerns U-251. The series is described as follows: Antiproliferative activity against human U-251MG cells assessed as reduction in cell growth measured for 48 hrs by MTT assay. It is filed as functional, cell-based. Conditions: U-251, 48 h.
Series [30] concerns SH-SY5Y. The series is described as follows: Cytotoxicity against human SH-SY5Y cells measured for 48 hrs by SRB assay. It counts as functional, cell-based.
Series [31] has as its system C6. As to the kind of experiment: Antitumor activity against rat C6 cells implanted in Wistar rat assessed as increase in life span at 250 mg/kg relative to control. It is filed as functional.
Series [32] deals with CCRF-CEM. As to the kind of experiment: Cytotoxicity against human CCRF-CEM cells assessed as reduction in cell viability incubated for 72 hrs by resazurin dye based analysis. It counts as functional. In general terms: Resazurin is reduced to fluorescent resorufin, in cell work by metabolically active cells.
The subject of series [33] is ADR5000 cell line. As to the kind of experiment: Cytotoxicity against human CEM/ADR5000 cells assessed as reduction in cell viability incubated for 72 hrs by resazurin dye based analysis. It counts as functional. To be noted: ADR5000, 72 h.
Series [34] can be described thus: Cytotoxicity against human GBM cells harboring EGFR mutation assessed as reduction in cell viability incubated for 72 hrs by resazurin dye based assay. It is filed as functional.
A short description of series [35]: Cytotoxicity against rat 9L/ACNU cells assessed as reduction in cell viability incubated for 24 hrs by tryphan-blue dye based assay. It counts as functional.
Series [36] concerns 9L. The series is described as follows: Cytotoxicity against rat 9L cells assessed as reduction in cell viability incubated for 24 hrs by tryphan-blue dye based assay. It is filed as functional.
The nature of series [37]: Antitumor activity against rat C6/ACNUcells implanted in Wistar rat assessed as increase in life span at 250 mg/kg relative to control. It is filed as functional, C6/ACNU.
Series [38] can be described thus: Cytotoxicity against human U-87 MG cells harboring EGFR mutation assessed as reduction in cell viability incubated for 72 hrs by resazurin dye based assay. It is filed as functional, U-87MG ATCC.

A word on the IC50: it is the concentration that gives 50% inhibition. As usually defined, the LD50 is the dose at which mortality reaches 50%. For the molecule `COc1cc2c(cc1OC)[C@@]13CCN4CC5=CCO[C@H]6CC(=O)N2[C@H]1[C@H]6[C@H]5C[C@H]43` [BRUCINE], the IC50 in [1] amounted to 604 µM; in series [2] it was 536 µM; in series [3] it was 614 µM; in series [4], 527 µM. In addition, the LD50 at 480 h in series [5] is 13.2 mg/kg.
Regarding `Clc1ccccc1C(c1ccccc1)(c1ccccc1)n1ccnc1` [CLOTRIMAZOLE], in series [6], the Activity was found to be 70%.
With `O=C1NC(=O)c2c1c1[nH]cnc1c1[nH]c3ccccc3c21` [GRANULATIMIDE], the IC50 in series [7] was 6 µM.
With `CC[C@@]12CC(C(=O)OC)=C3Nc4cc(OC)c(O)cc4[C@@]34CCN(C[C@@H]3O[C@@H]31)[C@@H]24` [JERANTININE B], the IC50 in series [8] amounted to 2.83 µg/mL (≈ 7.1 µM); in series [9] it was 0.74 µg/mL (≈ 1.86 µM); in series [11], 0.19 µg/mL; in [12] it was 0.74 µg/mL. Further, in series [10], the CI was 0.85.
`COc1cc(/C=C/C(=O)NCCc2c[nH]c3ccc(O)cc23)ccc1O` [N-FERULOYL SEROTONIN]: the IC50 in series [13] worked out at 193 µM; in series [14], 238 µM; in series [15] it was 730 µM; in series [16] it was 590 µM.
Turning to `O=C(/C=C/c1ccc(O)cc1)NCCc1c[nH]c2ccc(O)cc12` [N-P-COUMAROYL SEROTONIN], the IC50 came to 77 µM in series [17]; 81 µM in series [18]; 62 µM in [19]; 68 µM in [20]; 48 µM in series [21].
Turning to `Cc1ncc(CNC(=O)N(CCCl)N=O)c(N)n1.Cl` [NIMUSTINE HYDROCHLORIDE], the IC50 in series [22] was 8.3 µg/mL; in series [24], 2.5 µg/mL; in series [25], 3.1 µg/mL; in series [26], 8 µg/mL; in series [27], 120 µg/mL; in series [28] it was 4.1 µg/mL. Also, the Activity in series [23] came out at 143%.
Consider `CC(C)(O)[C@H]1O[C@H]2CC[C@@]3(C)[C@@](O)(CC[C@H]4Cc5c([nH]c6ccccc56)[C@@]43C)C2=CC1=O` [PAXILLINE], for which the IC50 in series [29] was about 0.013 µM.
Molecule `OCc1ccc(-c2nccc3c2[nH]c2ccccc23)o1` [PERLOLYRIN] yielded an IC50 in series [30] of 23.9 µM.
Take `COC(=O)[C@H]1[C@H]2C[C@@H]3c4[nH]c5cc(OC)ccc5c4CCN3C[C@H]2C[C@@H](OC(=O)c2cc(OC)c(OC)c(OC)c2)[C@@H]1OC` [RESERPINE]: the Activity in series [31] stood at 143%; in series [37], 142%. Further, the IC50 in series [32] was 14.5 µM; in series [33] it was 13.2 µM; in [34], 88 µM; in series [35] it was 2 µM; in series [36], 1 µM; in series [38] it was 9.15 µM.

These data come from ChEMBL document CHEMBL6115010, “Targeting glioma with heteroaromatic alkaloids: A review of potential therapeutics” (Bioorg Med Chem, 2025).
